According to BindingDB's records for doi:10.1021/jm00128a028 (Roche Research Center, 1989):

Target: Thromboxane-A synthase (Rattus norvegicus) (UniProt P49430)
Assay: Inhibitory activity to inhibit Inophore-induced arachidonic acid metabolism (inhibition of TXB2 formation) in rat

Chain of Thromboxane-A synthase (Rattus norvegicus) (P49430 whole entry, looked up): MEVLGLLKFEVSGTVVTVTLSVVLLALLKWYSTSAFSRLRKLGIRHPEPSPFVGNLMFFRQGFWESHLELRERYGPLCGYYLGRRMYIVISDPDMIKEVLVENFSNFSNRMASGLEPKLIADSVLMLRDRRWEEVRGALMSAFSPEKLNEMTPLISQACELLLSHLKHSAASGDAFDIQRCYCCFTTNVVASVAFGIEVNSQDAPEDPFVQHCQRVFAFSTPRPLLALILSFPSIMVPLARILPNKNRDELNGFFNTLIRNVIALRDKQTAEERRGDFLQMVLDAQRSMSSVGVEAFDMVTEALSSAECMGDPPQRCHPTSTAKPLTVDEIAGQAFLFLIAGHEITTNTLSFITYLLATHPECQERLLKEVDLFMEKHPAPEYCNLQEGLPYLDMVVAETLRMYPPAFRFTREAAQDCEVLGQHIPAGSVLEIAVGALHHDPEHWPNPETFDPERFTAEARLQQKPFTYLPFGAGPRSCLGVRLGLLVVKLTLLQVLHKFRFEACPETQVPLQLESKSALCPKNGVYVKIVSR

IC50 [nM]	SMILES
2000	CC(C)c1ccc2c(c1)c(SC(C)(C)C)c(CC(C)(C)C(=O)O)n2Cc1ccc(Cl)cc1
6000	CCCc1c(OCCCCCOc2cc3c(cc2C(C)=O)CCC(C(=O)O)O3)ccc(C(C)=O)c1O (stereo not drawn) [Ro-23-3544]
100	COc1ccc2c(c1)c(CC(=O)O)c(C)n2C(=O)c1ccc(Cl)cc1 [indometacin]
